Experimental data taken from the OligoGym collection.
Several values for one entry are separate records, joined by “and”; a condition that tells them apart may be missing. Identical values can stand only once. HELM strings list units from the 5' end as sugar, base in round brackets, then linkage (d deoxyribose, r ribose, m 2'-O-methyl, p phosphodiester). Methylation of C is not given here. [moe] = 2'-O-(2-methoxyethyl) (MOE); [cEt] = constrained ethyl (cEt); [sp] = phosphorothioate linkage

Biological target: HBV
Conditions: ASO

Row | Substance | target mRNA inhibition (HepG2, 0.07 µM) | further results
1 | RNA1{[moe](A)[sp].[cEt](G)[sp].[cEt](G)[sp].d(C)[sp].d(A)[sp].d(C)[sp].d(A)[sp].d(G)[sp].d(C)[sp].d(T)[sp].d(T)[sp].d(G)[sp].d(G)[sp].[cEt](A)[sp].[cEt](G)[sp].[moe](G)}$$$$V2.0 | 12% and 37% | 
2 | RNA1{[moe](G)[sp].[moe](A)[sp].[moe](A)[sp].[moe](C)[sp].[moe](T)[sp].d(G)[sp].d(G)[sp].d(A)[sp].d(G)[sp].d(C)[sp].d(C)[sp].d(A)[sp].d(C)[sp].d(C)[sp].[moe](A)[sp].[moe](G)}$$$$V2.0 | 46% and 39% | 
3 | RNA1{[moe](G)[sp].[cEt](A)[sp].[cEt](A)[sp].d(C)[sp].d(A)[sp].d(A)[sp].d(A)[sp].d(T)[sp].d(G)[sp].d(G)[sp].d(C)[sp].d(A)[sp].d(C)[sp].[cEt](T)[sp].[cEt](A)[sp].[moe](G)}$$$$V2.0 | 72% and 61% | 
4 | RNA1{[moe](T)[sp].[moe](C)[sp].[moe](C)[sp].[moe](G)[sp].[moe](C)[sp].d(A)[sp].d(G)[sp].d(T)[sp].d(A)[sp].d(T)[sp].d(G)[sp].d(G)[sp].d(A)[sp].d(T)[sp].[moe](C)[sp].[moe](G)[sp].[moe](G)}$$$$V2.0 | 77% and 68% | 
5 | RNA1{[moe](G)[sp].[moe](C)[sp].[moe](A)[sp].d(G)[sp].d(T)[sp].d(A)[sp].d(T)[sp].d(G)[sp].d(G)[sp].d(A)[sp].d(T)[sp].d(C)[sp].[moe](G)[sp].[moe](G)[sp].[moe](C)[sp].[moe](A)}$$$$V2.0 | 81% and 72% | 
6 | RNA1{[moe](T)[sp].[moe](T)[sp].d(T)[sp].d(A)[sp].d(T)[sp].d(G)[sp].d(C)[sp].d(C)[sp].d(T)[sp].d(A)[sp].d(C)[sp].[moe](A)[sp].[moe](G)[sp].[moe](C)[sp].[moe](C)[sp].[moe](T)[sp].[moe](C)}$$$$V2.0 | 64% and 54% | 
7 | RNA1{[moe](G)[sp].[moe](A)[sp].[moe](G)[sp].[moe](G)[sp].[moe](T)[sp].[moe](G)[sp].d(A)[sp].d(A)[sp].d(G)[sp].d(C)[sp].d(G)[sp].d(A)[sp].d(A)[sp].d(G)[sp].d(T)[sp].[moe](G)[sp].[moe](C)}$$$$V2.0 | 75% and 52% | 
8 | RNA1{[moe](T)[sp].[moe](T)[sp].[moe](C)[sp].d(C)[sp].d(G)[sp].d(C)[sp].d(A)[sp].d(G)[sp].d(T)[sp].d(A)[sp].d(T)[sp].d(G)[sp].[moe](G)[sp].[moe](A)[sp].[moe](T)[sp].[moe](C)[sp].[moe](G)}$$$$V2.0 | 73% and 60% | 
9 | RNA1{[moe](G)[sp].[moe](A)[sp].d(G)[sp].d(G)[sp].d(T)[sp].d(G)[sp].d(A)[sp].d(A)[sp].d(G)[sp].d(C)[sp].d(G)[sp].[moe](A)[sp].[moe](A)[sp].[moe](G)[sp].[moe](T)[sp].[moe](G)}$$$$V2.0 | 51% and 46% | 
10 | RNA1{[moe](T)[sp].[moe](G)[sp].[moe](C)[sp].d(A)[sp].d(G)[sp].d(A)[sp].d(G)[sp].d(G)[sp].d(T)[sp].d(G)[sp].d(A)[sp].d(A)[sp].[moe](G)[sp].[moe](C)[sp].[moe](G)[sp].[moe](A)}$$$$V2.0 | 51% and 56% | 
11 | RNA1{[moe](A)[sp].[moe](G)[sp].[moe](G)[sp].d(T)[sp].d(G)[sp].d(A)[sp].d(A)[sp].d(G)[sp].d(C)[sp].d(G)[sp].d(A)[sp].d(A)[sp].d(G)[sp].[cEt](T)[sp].[cEt](G)[sp].[cEt](C)}$$$$V2.0 | 73% and 68% | 
12 | RNA1{[moe](A)[sp].[cEt](C)[sp].d(G)[sp].d(T)[sp].d(G)[sp].d(C)[sp].d(A)[sp].d(G)[sp].d(A)[sp].d(G)[sp].d(G)[sp].d(T)[sp].[cEt](G)[sp].[moe](A)[sp].[cEt](A)[sp].[moe](G)}$$$$V2.0 | 71% and 68% | 
13 | RNA1{[moe](C)[sp].[cEt](C)[sp].[cEt](A)[sp].d(C)[sp].d(T)[sp].d(G)[sp].d(A)[sp].d(A)[sp].d(C)[sp].d(A)[sp].d(A)[sp].d(A)[sp].d(T)[sp].[cEt](G)[sp].[cEt](G)[sp].[moe](C)}$$$$V2.0 | 78% and 84% | target mRNA inhibition (HepG2, 0.0092593 µM): 11%; target mRNA inhibition (HepG2, 0.0277778 µM): 28%; target mRNA inhibition (HepG2, 0.0833333 µM): 68%; target mRNA inhibition (HepG2, 0.25 µM): 89%
14 | RNA1{[moe](C)[sp].[cEt](C)[sp].[cEt](A)[sp].d(A)[sp].d(T)[sp].d(T)[sp].d(T)[sp].d(A)[sp].d(T)[sp].d(G)[sp].d(C)[sp].d(C)[sp].d(T)[sp].[cEt](A)[sp].[cEt](C)[sp].[moe](A)}$$$$V2.0 | 42% and 18% | 
15 | RNA1{[moe](A)[sp].[moe](G)[sp].[moe](G)[sp].[moe](T)[sp].[moe](G)[sp].d(A)[sp].d(A)[sp].d(G)[sp].d(C)[sp].d(G)[sp].d(A)[sp].d(A)[sp].d(G)[sp].d(T)[sp].[moe](G)[sp].[moe](C)}$$$$V2.0 | 50% and 44% | 
16 | RNA1{[moe](A)[sp].[moe](G)[sp].[moe](A)[sp].[moe](G)[sp].[moe](G)[sp].d(T)[sp].d(G)[sp].d(A)[sp].d(A)[sp].d(G)[sp].d(C)[sp].d(G)[sp].d(A)[sp].d(A)[sp].[moe](G)[sp].[moe](T)[sp].[moe](G)}$$$$V2.0 | 64% and 55% | 

Row | Substance | target mRNA inhibition (HepG2, 0.07 µM) | further results
17 | RNA1{[moe](A)[sp].[moe](G)[sp].d(A)[sp].d(A)[sp].d(G)[sp].d(T)[sp].d(C)[sp].d(C)[sp].d(A)[sp].d(C)[sp].d(C)[sp].[moe](A)[sp].[moe](C)[sp].[moe](G)[sp].[moe](A)[sp].[moe](G)[sp].[moe](T)}$$$$V2.0 | 62% and 49% | 
18 | RNA1{[moe](A)[sp].[cEt](G)[sp].d(A)[sp].d(G)[sp].d(G)[sp].d(T)[sp].d(G)[sp].d(A)[sp].d(A)[sp].d(G)[sp].d(C)[sp].d(G)[sp].[cEt](A)[sp].[moe](A)[sp].[cEt](G)[sp].[moe](T)}$$$$V2.0 | 63% and 76% | 
19 | RNA1{[moe](G)[sp].[moe](A)[sp].[moe](G)[sp].d(G)[sp].d(C)[sp].d(A)[sp].d(T)[sp].d(A)[sp].d(G)[sp].d(C)[sp].d(A)[sp].d(G)[sp].d(C)[sp].[moe](A)[sp].[moe](G)[sp].[moe](G)}$$$$V2.0 |  | target mRNA inhibition (HepG2, 0.0092593 µM): 4%; target mRNA inhibition (HepG2, 0.0277778 µM): 24%; target mRNA inhibition (HepG2, 0.0833333 µM): 49%; target mRNA inhibition (HepG2, 0.25 µM): 67%
20 | RNA1{[moe](T)[sp].[cEt](A)[sp].[cEt](G)[sp].d(G)[sp].d(C)[sp].d(A)[sp].d(G)[sp].d(A)[sp].d(G)[sp].d(G)[sp].d(T)[sp].d(G)[sp].d(A)[sp].[cEt](A)[sp].[cEt](A)[sp].[moe](A)}$$$$V2.0 | 31% and 28% | 
21 | RNA1{[moe](C)[sp].[cEt](C)[sp].[cEt](A)[sp].d(A)[sp].d(G)[sp].d(G)[sp].d(C)[sp].d(A)[sp].d(C)[sp].d(A)[sp].d(G)[sp].d(C)[sp].d(T)[sp].[cEt](T)[sp].[cEt](G)[sp].[moe](G)}$$$$V2.0 | 1% and 0% | 
22 | RNA1{[moe](G)[sp].[moe](G)[sp].d(A)[sp].d(G)[sp].d(T)[sp].d(T)[sp].d(C)[sp].d(C)[sp].d(G)[sp].d(C)[sp].d(A)[sp].[moe](G)[sp].[moe](T)[sp].[moe](A)[sp].[moe](T)[sp].[moe](G)}$$$$V2.0 | 67% and 45% | 
23 | RNA1{[moe](A)[sp].[moe](G)[sp].[moe](T)[sp].d(T)[sp].d(C)[sp].d(C)[sp].d(G)[sp].d(C)[sp].d(A)[sp].d(G)[sp].d(T)[sp].d(A)[sp].d(T)[sp].[cEt](G)[sp].[cEt](G)[sp].[cEt](A)}$$$$V2.0 | 58% and 69% | 
24 | RNA1{[moe](T)[sp].[moe](T)[sp].[moe](A)[sp].d(T)[sp].d(G)[sp].d(C)[sp].d(C)[sp].d(T)[sp].d(A)[sp].d(C)[sp].d(A)[sp].d(G)[sp].[moe](C)[sp].[moe](C)[sp].[moe](T)[sp].[moe](C)}$$$$V2.0 | 51% and 41% | 
25 | RNA1{[moe](C)[sp].[moe](T)[sp].[moe](G)[sp].[moe](G)[sp].[moe](A)[sp].d(G)[sp].d(C)[sp].d(C)[sp].d(A)[sp].d(C)[sp].d(C)[sp].d(A)[sp].d(G)[sp].d(C)[sp].[moe](A)[sp].[moe](G)}$$$$V2.0 | 46% and 53% | 
26 | RNA1{[moe](A)[sp].[moe](A)[sp].d(T)[sp].d(T)[sp].d(T)[sp].d(A)[sp].d(T)[sp].d(G)[sp].d(C)[sp].d(C)[sp].d(T)[sp].[moe](A)[sp].[moe](C)[sp].[moe](A)[sp].[moe](G)[sp].[moe](C)}$$$$V2.0 | 27% and 19% | 
27 | RNA1{[moe](G)[sp].[moe](G)[sp].d(A)[sp].d(G)[sp].d(T)[sp].d(T)[sp].d(C)[sp].d(C)[sp].d(G)[sp].d(C)[sp].d(A)[sp].[moe](G)[sp].[moe](T)[sp].[moe](A)[sp].[moe](T)[sp].[moe](G)[sp].[moe](G)}$$$$V2.0 | 88% and 78% | 
28 | RNA1{[moe](T)[sp].[moe](T)[sp].[moe](A)[sp].[moe](T)[sp].d(G)[sp].d(C)[sp].d(C)[sp].d(T)[sp].d(A)[sp].d(C)[sp].d(A)[sp].d(G)[sp].d(C)[sp].[moe](C)[sp].[moe](T)[sp].[moe](C)}$$$$V2.0 | 42% and 46% | 
29 | RNA1{[moe](A)[sp].[moe](C)[sp].[moe](G)[sp].[moe](G)[sp].[moe](G)[sp].d(C)[sp].d(A)[sp].d(A)[sp].d(C)[sp].d(A)[sp].d(T)[sp].d(A)[sp].d(C)[sp].d(C)[sp].[moe](T)[sp].[moe](T)}$$$$V2.0 | 56% and 46% | 
30 | RNA1{[moe](G)[sp].[moe](A)[sp].[moe](A)[sp].[moe](G)[sp].[moe](T)[sp].d(C)[sp].d(C)[sp].d(A)[sp].d(C)[sp].d(C)[sp].d(A)[sp].d(C)[sp].d(G)[sp].d(A)[sp].[moe](G)[sp].[moe](T)[sp].[moe](C)}$$$$V2.0 | 5% and 2% | 
31 | RNA1{[moe](G)[sp].[moe](A)[sp].[moe](A)[sp].d(C)[sp].d(T)[sp].d(G)[sp].d(G)[sp].d(A)[sp].d(G)[sp].d(C)[sp].d(C)[sp].d(A)[sp].d(C)[sp].[cEt](C)[sp].[cEt](A)[sp].[cEt](G)}$$$$V2.0 | 59% and 58% | 
